Experiment: pH-profile drug release in dialysis bag, consecutive simulated gastrointestinal media
Type: physicochemical
Experimental: Rv (Sigma-Aldrich, USA) stock solution of 15 μg/mL was prepared in distilled water. Using UV spectrophotometric analysis (Shimadzu-UV-Vis Spectrophotometers, Japan), the analysis was conducted at a wavelength of 306 nm in a 1 cm cell compared to a blank solution of distilled water. To construct a calibration curve, dilutions had been prepared (FIG. 1). The ? -max selection was based on the UV-scanning from 200-400 nm of pure Rv solution. The formulations' drug-content assays for drug encapsulation efficiency were accomplished by dissolving the formulation in ethanol and centrifuging it for 30 minutes at 1500 rpm. After that, an accurate volume of the supernatant transparent layer had been measured for UV-absorbance at 306 nm for Rv content. This ? -max was unique for Rv only (Zhang Lingtuo et al. 2019).
The formulations in Table 1 containing 500 mg of the Rv were each encountered in the dialysis bag (14000 Daltons cut off, Sigma-Aldrich, USA). The dry weights of the formulations were reconstituted with distilled water before enclosing them inside the dialysis bag. The release media volume was 300 mL. The drug-release experiment was designed to simulate the gastrointestinal-pH and transit time after oral ingestion. As a result, the dialysis membranes' surrounding media simulated gastric media (0.1N HCl-pH 1.2), proximal intestine simulated media (phosphate buffer-pH 6.5), the distal area of the small intestine (phosphate buffer-pH 6.8), and phosphate buffer media-pH 7.4 of descending colon simulated media, consecutively. The transit time for each simulated media was two hrs (Amidon et al. 2015; Maurer et al. 2015; Bani-Jaber and Abdullah 2020). The dialysis membranes were subjected to 37±0.5° C. in a water bath shaker of 75 rpm speed. Total release media replacement was made after each hour of dissolution to simulate body sink conditions. This experiment was conducted to optimize the formulation depending on SR behavior and drug encapsulation efficiency. The optimum formula was subjected to aging, gel swelling studies, nanoparticle, and formulation's physiochemical characterizations.

- Gastric % Release (0.1N HCl pH 1.2, 2 hrs, 37°C, 500 mg Rv, freshly prepared): 16.83%
- average total pH-profile release after 8 hrs (pH 1.2, 6.5, 6.8, 7.4, 2 hrs each): 50.89%
- Intestinal-Colonic % Release (pH 6.5, 6.8 and 7.4 media together (6 hrs), freshly prepared): 34.06%
- Proximal Intestine % Release (phosphate buffer pH 6.5, 2 hrs, freshly prepared): 11.49%
- Distal Intestine % Release (phosphate buffer pH 6.8, 2 hrs, freshly prepared): 12.74%
- Colon % Release (phosphate buffer pH 7.4, 2 hrs, freshly prepared): 9.83%
Substance: 3,5,4-trihydroxytrans-stilbene [Rv]

— patent US11318090B1, “In situ gelling composition as a pH-selective and mucoadhesive sustained release drug delivery system” (King Abdulaziz University, priority 2021, dated 2022)
